Key:
Format in all cases: biochemical
human Yes1 enzyme = target: T1, human Yes1 enzyme (Homo sapiens, UniProt P07947); test: Yes1 enzyme inhibitory activity (time-resolved fluorometry, biotinylated peptide phosphorylation); settings: biotinylated peptide phosphorylation, read-out: YES_IC50
T1 construct: made in house
Procedure, shortened: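 Inhibition was expressed against a compound-free control to give IC50, using TR-FRET read-out (Eu-cryptate anti-pTyr antibody, streptavidin-XL665).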

human Lck enzyme = target: T2, human Lck enzyme (Homo sapiens, UniProt P06239); test: Lck enzyme inhibitory activity (time-resolved fluorometry, biotinylated peptide phosphorylation); settings: biotinylated peptide phosphorylation, read-out: LCK_IC50
T2 construct: purchased Carna Biosciences, Inc. 08-170
Procedure, shortened: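 Readout pairs a europium cryptate-labelled anti-phosphotyrosine antibody with XL665-streptavidin, measured by time-resolved fluorescence. IC50 derived from percent inhibition against untreated controls.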

human Src enzyme = target: T3, human Src enzyme (Homo sapiens, UniProt P12931); test: Src enzyme inhibitory activity (time-resolved fluorometry, biotinylated peptide phosphorylation); settings: biotinylated peptide phosphorylation, read-out: SRC_IC50
T3 construct: purchased Carna Biosciences, Inc. 08-173
Procedure, shortened: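 Compounds were tested for blocking tyrosine phosphorylation of a biotinylated peptide substrate by recombinant human Src. Phosphorylated product was quantified by time-resolved fluorometry using europium cryptate and XL665 conjugates, and IC50 was calculated against the compound-free control.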

T1 sequence (P07947 whole entry): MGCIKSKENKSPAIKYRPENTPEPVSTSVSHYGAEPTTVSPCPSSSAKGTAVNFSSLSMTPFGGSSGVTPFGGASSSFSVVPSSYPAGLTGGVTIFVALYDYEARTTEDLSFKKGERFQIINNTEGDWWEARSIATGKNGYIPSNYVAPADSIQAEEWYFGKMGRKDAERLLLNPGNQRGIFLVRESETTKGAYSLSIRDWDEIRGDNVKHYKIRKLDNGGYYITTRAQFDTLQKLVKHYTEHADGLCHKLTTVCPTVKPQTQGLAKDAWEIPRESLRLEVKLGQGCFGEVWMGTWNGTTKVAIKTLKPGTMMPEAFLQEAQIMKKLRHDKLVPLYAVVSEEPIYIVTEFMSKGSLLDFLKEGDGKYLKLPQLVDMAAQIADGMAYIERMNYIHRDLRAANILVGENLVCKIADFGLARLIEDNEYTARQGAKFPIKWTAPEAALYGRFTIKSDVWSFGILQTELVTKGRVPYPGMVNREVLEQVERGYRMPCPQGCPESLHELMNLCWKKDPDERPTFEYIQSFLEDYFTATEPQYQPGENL
T3 sequence (P12931 whole entry): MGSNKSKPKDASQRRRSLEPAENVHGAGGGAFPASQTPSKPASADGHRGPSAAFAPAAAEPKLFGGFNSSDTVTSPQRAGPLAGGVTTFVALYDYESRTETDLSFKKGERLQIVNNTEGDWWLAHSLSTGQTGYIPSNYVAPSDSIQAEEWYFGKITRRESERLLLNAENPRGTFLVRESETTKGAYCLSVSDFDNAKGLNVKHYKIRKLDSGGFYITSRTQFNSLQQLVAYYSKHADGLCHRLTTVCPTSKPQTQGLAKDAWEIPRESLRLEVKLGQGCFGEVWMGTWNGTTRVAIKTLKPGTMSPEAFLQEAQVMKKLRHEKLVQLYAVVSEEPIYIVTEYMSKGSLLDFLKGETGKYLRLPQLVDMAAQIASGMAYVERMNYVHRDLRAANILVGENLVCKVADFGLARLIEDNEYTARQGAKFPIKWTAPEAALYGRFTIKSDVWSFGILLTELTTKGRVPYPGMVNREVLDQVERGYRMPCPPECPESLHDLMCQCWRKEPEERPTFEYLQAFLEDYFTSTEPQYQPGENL
T2 sequence (P06239 whole entry): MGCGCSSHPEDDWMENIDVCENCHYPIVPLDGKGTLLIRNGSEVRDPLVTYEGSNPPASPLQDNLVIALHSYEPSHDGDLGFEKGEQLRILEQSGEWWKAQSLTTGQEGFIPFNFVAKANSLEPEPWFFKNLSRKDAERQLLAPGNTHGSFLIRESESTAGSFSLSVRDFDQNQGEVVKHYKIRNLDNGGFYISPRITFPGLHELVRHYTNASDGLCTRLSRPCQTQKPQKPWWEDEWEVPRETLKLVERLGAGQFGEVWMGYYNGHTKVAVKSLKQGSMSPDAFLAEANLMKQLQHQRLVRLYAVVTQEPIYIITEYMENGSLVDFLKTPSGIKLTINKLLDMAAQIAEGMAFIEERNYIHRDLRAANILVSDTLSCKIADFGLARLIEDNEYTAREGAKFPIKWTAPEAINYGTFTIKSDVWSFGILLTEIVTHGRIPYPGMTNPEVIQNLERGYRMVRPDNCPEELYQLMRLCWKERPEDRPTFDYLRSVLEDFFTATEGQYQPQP

IC50 (human Yes1 enzyme) [nM]	IC50 (human Lck enzyme) [nM]	IC50 (human Src enzyme) [nM]	Structure (SMILES)
2.7	240	520	COc1ccnc(S(=O)(=O)Nc2cc3[nH]c(C(=O)c4cnn(-c5cnc(Oc6c(F)cccc6F)cc5C)c4N)cc3cc2C)c1 [Example 5-1-511, N-[2-[5-amino-1-[6-(2,6-difluorophenoxy)-4-methylpyridin-3-yl]pyrazole-4-carbonyl]-5-methyl-1H-indol-6-yl]-4-methoxypyridine-2-sulfonamide]
1.2	33	250	COc1ccnc(S(=O)(=O)Nc2cc3[nH]c(C(=O)c4cnn(-c5ccc(Oc6ccccc6F)cc5C)c4N)cc3cc2F)c1 [Example 5-1-512, N-[2-[5-amino-1-[4-(2-fluorophenoxy)-2-methylphenyl]pyrazole-4-carbonyl]-5-fluoro-1H-indol-6-yl]-4-methoxypyridine-2-sulfonamide]
3.7	98	510	COc1ccnc(S(=O)(=O)Nc2cc3[nH]c(C(=O)c4cnn(-c5cnc(Oc6c(F)cccc6F)cc5C)c4N)cc3cc2F)c1 [Example 5-1-513, N-[2-[5-amino-1-[6-(2,6-difluorophenoxy)-4-methylpyridin-3-yl]pyrazole-4-carbonyl]-5-fluoro-1H-indol-6-yl]-4-methoxypyridine-2-sulfonamide]
3.3	140	760	COc1ccnc(S(=O)(=O)Nc2cc3[nH]c(C(=O)c4cnn(-c5cnc(Oc6ccccc6F)cc5C)c4N)cc3cc2F)c1 [Example 5-1-514, N-[2-[5-amino-1-[6-(2-fluorophenoxy)-4-methylpyridin-3-yl]pyrazole-4-carbonyl]-5-fluoro-1H-indol-6-yl]-4-methoxypyridine-2-sulfonamide]
2.4	59	280	Cc1cc2cc(C(=O)c3cnn(-c4ccc(Oc5ccccc5F)cc4C)c3N)[nH]c2cc1NS(=O)(=O)c1cccc(F)n1 [Example 5-1-515, N-[2-[5-amino-1-[4-(2-fluorophenoxy)-2-methylphenyl]pyrazole-4-carbonyl]-5-methyl-1H-indol-6-yl]-6-fluoropyridine-2-sulfonamide]
5.1	91	540	Cc1cc2cc(C(=O)c3cnn(-c4cnc(Oc5c(F)cccc5F)cc4C)c3N)[nH]c2cc1NS(=O)(=O)c1cccc(F)n1 [Example 5-1-516, N-[2-[5-amino-1-[6-(2,6-difluorophenoxy)-4-methylpyridin-3-yl]pyrazole-4-carbonyl]-5-methyl-1H-indol-6-yl]-6-fluoropyridine-2-sulfonamide]
2.1	34	300	Cc1cc(Oc2ccccc2F)ccc1-n1ncc(C(=O)c2cc3cc(F)c(NS(=O)(=O)c4cccc(F)n4)cc3[nH]2)c1N [Example 5-1-517, N-[2-[5-amino-1-[4-(2-fluorophenaxy)-2-methylphenyl]pyrazole-4-carbonyl]-5-fluoro-1H-indol-5-yl]-6-fluoropyridine-2-sulfonamide]
5.8	82	570	Cc1cc(Oc2c(F)cccc2F)ncc1-n1ncc(C(=O)c2cc3cc(F)c(NS(=O)(=O)c4cccc(F)n4)cc3[nH]2)c1N [Example 5-1-518, N-[2-[5-amino-1-[6-(2,6-difluorophenoxy)-4-methylpyridin-3-yl]pyrazole-4-carbonyl]-5-fluoro-1H-indol-6-yl]-6-fluoropyridine-2-sulfonamide]
4.6	120	710	Cc1cc(Oc2ccccc2F)ncc1-n1ncc(C(=O)c2cc3cc(F)c(NS(=O)(=O)c4cccc(F)n4)cc3[nH]2)c1N [Example 5-1-519, N-[2-[5-amino-1-[6-(2-fluorophenoxy)-4-methylpyridin-3-yl]pyrazole-4-carbonyl]-5-fluoro-1H-indol-6-yl]-6-fluoropyridine-2-sulfonamide]
2.7	67	270	Cc1cnc(F)c(S(=O)(=O)Nc2cc3[nH]c(C(=O)c4cnn(-c5ccc(Oc6ccccc6F)cc5C)c4N)cc3cc2C)c1 [Example 5-1-520, N-[2-[5-amino-1-[4-(2-fluorophenoxy)-2-methylphenyl]pyrazole-4-carbonyl]-5-methyl-1H-indol-5-yl]-2-fluoro-5-methylpyridine-3-sulfonamide]
5.8	180	470	Cc1cnc(F)c(S(=O)(=O)Nc2cc3[nH]c(C(=O)c4cnn(-c5cnc(Oc6c(F)cccc6F)cc5C)c4N)cc3cc2C)c1 [Example 5-1-521, N-[2-[5-amino-1-[6-(2,6-difluorophenoxy)-4-methylpyridin-3-yl]pyrazole-4-carbonyl]-5-methyl-1H-indol-6-yl]-2-fluoro-5-methylpyridine-3-sulfonamide]
1.8	120	250	Cc1cnc(F)c(S(=O)(=O)Nc2cc3[nH]c(C(=O)c4cnn(-c5ccc(Oc6ccccc6F)cc5C)c4N)cc3cc2F)c1 [Example 5-1-522, N-[2-[5-amino-1-[4-(2-fluorophenoxy)-2-methylphenyl]pyrazole-4-carbonyl]-5-fluoro-1H-indol-6-yl]-2-fluoro-5-methylpyridine-3-sulfonamide]
6.3	200	450	Cc1cnc(F)c(S(=O)(=O)Nc2cc3[nH]c(C(=O)c4cnn(-c5cnc(Oc6c(F)cccc6F)cc5C)c4N)cc3cc2F)c1 [Example 5-1-523, N-[2-[5-amino-1-[6-(2,6-difluorophenoxy)-4-methylpyridin-3-yl]pyrazole-4-carbonyl]-5-fluoro-1H-indol-6-yl]-2-fluoro-5-methylpyridine-3-sulfonamide]
5.7	210	580	Cc1cnc(F)c(S(=O)(=O)Nc2cc3[nH]c(C(=O)c4cnn(-c5cnc(Oc6ccccc6F)cc5C)c4N)cc3cc2F)c1 [Example 5-1-524, N-[2-[5-amino-1-[6-(2-fluorophenoxy)-4-methylpyridin-3-yl]pyrazole-4-carbonyl]-5-fluoro-1H-indol-6-yl]-2-fluoro-5-methylpyridine-3-sulfonamide]
3.1	72	400	Cc1cc2cc(C(=O)c3cnn(-c4ccc(Oc5ccccc5F)cc4C)c3N)[nH]c2cc1NS(=O)(=O)c1cccc(Cl)n1 [Example 5-1-525, N-[2-[5-amino-1-[4-(2-fluorophenoxy)-2-methylphenyl]pyrazole-4-carbonyl]-5-methyl-1H-indol-6-yl]-6-chloropyridine-2-sulfonamide]
8	250	620	Cc1cc2cc(C(=O)c3cnn(-c4cnc(Oc5c(F)cccc5F)cc4C)c3N)[nH]c2cc1NS(=O)(=O)c1cccc(Cl)n1 [Example 5-1-526, N-[2-[5-amino-1-[6-(2,6-difluorophenoxy)-4-methylpyridin-3-yl]pyrazole-4-carbonyl]-5-methyl-1H-indol-6-yl]-6-chloropyridine-2-sulfonamide]
3.2	110	500	Cc1cc(Oc2ccccc2F)ccc1-n1ncc(C(=O)c2cc3cc(F)c(NS(=O)(=O)c4cccc(Cl)n4)cc3[nH]2)c1N [Example 5-1-527, N-[2-[5-amino-1-[4-(2-fluorophenoxy)-2-methylphenyl]pyrazole-4-carbonyl]-5-fluoro-1H-indol-6-yl]-6-chloropyridine-2-sulfonamide]
8.8	230	750	Cc1cc(Oc2c(F)cccc2F)ncc1-n1ncc(C(=O)c2cc3cc(F)c(NS(=O)(=O)c4cccc(Cl)n4)cc3[nH]2)c1N [Example 5-1-528, N-[2-[5-amino-1-[6-(2,6-difluorophenoxy)-4-methylpyridin-3-yl]pyrazole-4-carbonyl]-5-fluoro-1H-indol-6-yl]-6-chloropyridine-2-sulfonamide]
8.6	260	840	Cc1cc(Oc2ccccc2F)ncc1-n1ncc(C(=O)c2cc3cc(F)c(NS(=O)(=O)c4cccc(Cl)n4)cc3[nH]2)c1N [Example 5-1-529, N-[2-[5-amino-1-[6-(2-fluorophenoxy)-4-methylpyridin-3-yl]pyrazole-4-carbonyl]-5-fluoro-1H-indol-6-yl]-6-chloropyridine-2-sulfonamide]
2.6	34	200	Cc1cccc(S(=O)(=O)Nc2cc3[nH]c(C(=O)c4cnn(-c5ccc(Oc6ccccc6F)cc5C)c4N)cc3cc2C)n1 [Example 5-1-530, N-[2-[5-amino-1-[4-(2-fluorophenoxy)-2-methylphenyl]pyrazole-4-carbonyl]-5-methyl-1H-indol-6-yl]-6-melhylpyridine-2-sulfonamide]
4.9	110	480	Cc1cccc(S(=O)(=O)Nc2cc3[nH]c(C(=O)c4cnn(-c5cnc(Oc6c(F)cccc6F)cc5C)c4N)cc3cc2C)n1 [Example 5-1-531, N-[2-[5-amino-1-[6-(2,6-difluorophenoxy)-4-melhylpyridin-3-yl]pyrazole-4-carbonyl]-5-methyl-1H-indol-6-yl]-6-methylpyridine-2-sulfonamide]
1.6	38	290	Cc1cccc(S(=O)(=O)Nc2cc3[nH]c(C(=O)c4cnn(-c5ccc(Oc6ccccc6F)cc5C)c4N)cc3cc2F)n1 [Example 5-1-532, N-[2-[5-amino-1-[4-(2-fluorophenoxy)-2-methylphenyl]pyrazole-4-carbonyl]-5-fluoro-1H-indol-6-yl]-6-methylpyridine-2-sulfonamide]

Reference: patent publication US10479780B2, “Aminopyrazole derivatives” (Chugai Seiyaku Kabushiki Kaisha, priority 2015, dated 2019)
